Here are results for six compounds from ChEMBL document CHEMBL1158266, “Cyclopentabenzofuran lignan protein synthesis inhibitors from Aglaia odorata” (J Nat Prod, 1996).

Assay [1] has as its system NRK. Nature of the assay: Induction of morphological changes in rat NRK cells expressing K-ras assessed as flat morphology. The format is functional, cell-based.
Assay [2] deals with NRK. Description: Induction of morphological changes in rat NRK cells expressing K-ras-ts proto-oncogene assessed as flat morphology. The format is functional, cell-based.
Assay [3] concerns NRK. Description: Inhibition of protein synthesis in rat NRK cells expressing K-ras assessed as L-[4,5-3H]leucine incorporation after 1 hr. The class given is functional, cell-based.
Assay [4] deals with NRK. Description: Inhibition of DNA synthesis in rat NRK cells expressing K-ras assessed as [methyl-3H]thymidine incorporation after 1 hr. The class given is functional, cell-based. On the technique in general: Dividing cells build labelled thymidine or BrdU into new DNA.
The subject of assay [5] is NRK. Nature of the assay: Inhibition of RNA synthesis in rat NRK cells expressing K-ras assessed as [5-3H]uridine incorporation after 1 hr. The class given is functional, cell-based.
The test system of assay [6] is NRK. Nature of the assay: Decrease in cellular Ras protein level in rat NRK cells expressing K-ras at 2.5 ng/mL after 1 to 3 days by immunoblotting. The class given is functional, cell-based. In general terms: A western blot detects proteins with antibodies after separation by electrophoresis.
The test system of assay [7] is NRK. Nature of the assay: Induction of morphological changes in rat NRK cells expressing K-ras assessed as flat morphology and cytoskeletal organization at 10 to 30 ng/mL after 1 day. The class given is functional, cell-based.
Assay [8] concerns NRK. Nature of the assay: Induction of morphological changes in rat NRK cells expressing K-ras assessed as flat morphology and cytoskeletal organization at 10 to 30 ng/mL after 3 days. The class given is functional, cell-based.
In assay [9] the test system is NRK. Description: Growth inhibition of rat NRK cells expressing K-ras. The format is functional, cell-based.
For assay [10], the system named is NIH3T3. Description: Growth inhibition of mouse NIH/3T3 cells expressing K-ras. The format is functional, cell-based.
Assay [11] relates to NIH3T3. Nature of the assay: Growth inhibition of mouse NIH/3T3 cells expressing H-ras. The format is functional, cell-based.
The test system of assay [12] is NIH3T3. Description: Growth inhibition of mouse NIH/3T3 cells expressing N-ras. The format is functional, cell-based.
Assay [13] concerns NRK. Nature of the assay: Growth inhibition of rat NRK cells. The class given is cell-based.
A short description of assay [14]: Growth inhibition of mouse NIH/3T3 cells. The class given is cell-based. Conditions: NIH3T3.

Converted amounts (≈) assume the structure as drawn. The source made the active and inactive calls. The rule behind the calls is not given here.

On to `COc1c(C=O)c(O)cc2c1C(=O)c1ccccc1C2=O`, for which the outcome in [1] and in [2] was Active.

Take `CC[C@@]12CC(C(=O)OC)=C3Nc4cc5c(cc4[C@@]34CCN(C[C@H]3O[C@H]31)[C@@H]24)[C@@H]1[C@H](O5)[C@@H](O)[C@@]2(CC)CC(C(=O)OC)=C3Nc4c(cc(O)c(OC)c4OC)[C@@]34CCN1[C@@H]24`: the result in [1] and in assay [2] was Active.

Broadly, the IC50 is the concentration at which inhibition is half-maximal. A low value points to higher potency. Regarding `COc1ccc([C@@]23Oc4cc(OC)cc(OC)c4[C@]2(O)C2=C(C(=O)N4CCC[C@H]4N2)[C@H]3c2ccccc2)cc1` [AGLAIASTATIN], the result in [3], in assay [6], in [7] and in assay [8] was Active. The outcome in [4] and in [5] was inactive. Further, the IC50 in [9] amounted to 2.8 ng/mL (≈ 0.00532 µM); in [10], 5.6 ng/mL (≈ 0.0106 µM); in assay [11] it was 1 ng/mL (≈ 0.0019 µM); in assay [12], 1.8 ng/mL (≈ 0.00342 µM); in assay [13] it was 2.1 ng/mL (≈ 0.00399 µM); in assay [14], 4.1 ng/mL (≈ 0.00779 µM).

For `CC[C@@]12C=CCN3CC[C@]4(C(=C(C(=O)OC)C1)Nc1cc5c(cc14)[C@H]1[C@@H](O5)[C@H](O)[C@]4(CC)CC(C(=O)OC)=C5Nc6c(cc(O)c(OC)c6OC)[C@@]56CCN1[C@H]46)[C@H]32`, the result in assay [1] and in [2] was Active.

For `COc1ccc([C@@]23Oc4cc(OC)cc(OC)c4[C@]2(O)c2nc4n(c(=O)c2[C@H]3c2ccccc2)CCC4)cc1`, the result in assay [3], in assay [6], in assay [7] and in assay [8] was Active. For the same compound, the result in assay [4] and in assay [5] was inactive. The half-maximal inhibitory concentration (IC50) turned out to be 81 ng/mL (≈ 0.154 µM) in [9]; 8.9 ng/mL (≈ 0.017 µM) in assay [10]; 7.8 ng/mL (≈ 0.0149 µM) in assay [11]; 8 ng/mL (≈ 0.0153 µM) in assay [12]; 9.8 ng/mL (≈ 0.0187 µM) in [13]; 7.6 ng/mL (≈ 0.0145 µM) in [14].

As to `COc1ccc([C@@]23Oc4cc(OC)cc(OC)c4[C@]2(O)[C@H](O)C[C@H]3c2ccccc2)cc1` [ROCAGLAOL], the outcome in assay [3], in [6], in [7] and in [8] was Active. Besides, the outcome in [4] and in assay [5] was inactive. Also, the IC50 amounted to 5.8 ng/mL (≈ 0.0133 µM) in assay [9]; 7 ng/mL (≈ 0.0161 µM) in assay [10]; 5.3 ng/mL (≈ 0.0122 µM) in [11]; 7.5 ng/mL (≈ 0.0173 µM) in assay [12]; 10 ng/mL (≈ 0.023 µM) in assay [13]; 2 ng/mL (≈ 0.0046 µM) in [14].
